# Assay results as given in patent US12138274B2, “Compositions and methods for the treatment of peripheral artery disease and cardiopulmonary diseases” (BOARD OF REGENTS OF THE UNIVERSITY OF NEBRASKA, priority 2018, dated 2024).
# How the values were obtained:
# Format in all cases: in vivo, rat
# [1] = test system: Interferon Regulatory Factor 8 (IRF8); assay: IRF8 protein expression in T1-T4 DRGs and stellate ganglia after bleomycin lung injury; conditions: 4-weeks post-bleomycin rats
# vagotomized rats = assay: Pressor and sympatho-excitatory response to topical bradykinin in bleomycin-treated rats; conditions: BK 10 μg/ml; 4 weeks after bleomycin, compared to sham
# Experimental: For measuring vitals of the rats, a Millar catheter (SPR 524; size, 3.5-Fr; Millar Instruments, Houston, TX) was advanced through the right common carotid artery and progressed into the aorta and left in place to record arterial pressure (AP), mean arterial pressure (MAP), and heart rate (HR), using PowerLab (Model 16S) and LabChart software (version 7.0) (ADInstruments, Colorado Springs, CO). Renal sympathetic nerve activity (RSNA) and integrated RSNA (iRSNA) were also measured. RSNA was recorded as described (Gao, et al. (2005) Hypertension 45:1173-1181; Wang, et al. (2010) J. Appl. Physiol., 108:1365-1375; Becker, et al. (2016) J. Physiol., 594:5711-5725). In brief, the left kidney, renal artery, and nerves were exposed through a left retroperitoneal flank incision. Sympathetic nerves running on or beside the renal artery were identified. The renal sympathetic nerves were placed on a pair of platinum-iridium recording electrodes and cut distally to avoid recording afferent activity. Nerve activity was amplified ([…]) and filtered (bandwidth: 100 to 3000 Hz) using a Grass P55C preamplifier. […] At the end of the experiment, the rat was euthanized with an overdose of pentobarbital sodium. Respective noise levels were subtracted from the nerve recording data before percent changes from baseline were calculated. […]
# rats = assay: Premature ventricle contractions after intra-tracheal bleomycin; conditions: single intra-tracheal delivery 2.5 mg/kg
# Source text: Bleomycin induces experimental lung fibrosis in a variety of animal models and it causes inflammatory and fibrotic reactions within a short period of time, even more so after intratracheal instillation.
substance,measurement,setting,value
bleomycin,IRF8 protein expression in T1-T4 DRGs and stellate ganglia (FIG. 12),[1],increases
same,pressor and sympatho-excitatory response to topical BK (FIG. 13),vagotomized rats,exaggerated pressor and sympatho-excitatory response
same,premature ventricle contractions (PVC) (FIG. 14),rats,dramatic increase
